Data on 11 compounds can be found in ChEMBL document CHEMBL1921729, “A small nonrule of 3 compatible fragment library provides high hit rate of endothiapepsin crystal structures with various fragment chemotypes” (J Med Chem, 2011).

In general, inhibition refers to the share of the control response that was lost under treatment. Low values mean a response near the control, high ones a response far below the control. What is called solubility is the dissolved amount per volume that the medium holds. Low readings indicate little dissolved substance, high ones much dissolved substance.

Series [1] addresses T1, Endothiapepsin (Cryphonectria parasitica) (UniProt P11838).
T1 sequence (whole entry): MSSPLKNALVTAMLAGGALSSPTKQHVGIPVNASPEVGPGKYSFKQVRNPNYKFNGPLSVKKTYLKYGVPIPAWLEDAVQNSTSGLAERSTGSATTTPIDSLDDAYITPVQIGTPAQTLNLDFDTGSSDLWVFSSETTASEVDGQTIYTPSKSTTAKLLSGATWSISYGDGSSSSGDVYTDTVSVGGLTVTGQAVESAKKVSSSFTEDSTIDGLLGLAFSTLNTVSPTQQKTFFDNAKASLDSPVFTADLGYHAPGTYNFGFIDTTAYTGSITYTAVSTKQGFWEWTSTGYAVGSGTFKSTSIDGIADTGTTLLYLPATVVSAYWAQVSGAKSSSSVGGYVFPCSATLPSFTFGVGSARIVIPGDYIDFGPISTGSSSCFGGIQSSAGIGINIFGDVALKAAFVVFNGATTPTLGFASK
In words: Inhibition of Cryphonectria parasitica endothiapepsin using Abz-Thr-Ile-Nle-p-nitro-Phe-Gln-Arg-NH2 as substrate at 1 mM by fluorescence spectrophotometry analysis.

Series [2] can be described thus: Solubility of the compound in aqueous buffer at pH 7.4 by UV spectrophotometry. The class given is physicochemical.

Molecules are shown by their SMILES.

As for `O=C(Cc1cn2ccccc2n1)Nc1ccccc1`, in series [1], the inhibition amounted to 84%. Moreover, the solubility in series [2] was more than 1500 µM.
Compound `O=C(CN1CCCCC1)Nc1ccc2c(c1)OCO2` yielded an inhibition in series [1] of 49%. The compound further yielded a solubility in series [2] of more than 1500 µM.
For `N=C(N)c1ccc(C(F)(F)F)cc1`, in that order: 45% and more than 1500 µM.
Consider `c1cc(CNc2ccc3c(c2)OCCO3)ccn1`, for which the inhibition in series [1] turned out to be 50%. Also, in series [2], the solubility is more than 1500 µM.
With `N=C(N)SCc1ccc(Cl)cc1`, the inhibition in series [1] turned out to be 84%. For the same compound, the solubility in series [2] was more than 1500 µM.
On the same counts, the results for `NC1=NCc2ccccc21` are 89% and more than 1500 µM.
In series [1], `OC(COCc1ccccc1F)CN1CCCC1` (configuration not stated) had an inhibition of 87%. In series [2], this compound gave a solubility of more than 1500 µM.
For `O=C(Cc1ccccc1)Nn1cnc2ccccc21`, in that order: 51% and more than 1500 µM.
For `N=C(N)SCc1ccccc1Cl`, in that order: 93% and more than 1500 µM.
For `CCN(CC)c1ccc(C(=O)NN)cc1`, in that order: 89% and more than 1500 µM.
Regarding `CNCc1ccc(Oc2cccnc2)o1`, the inhibition in series [1] is 66%. This compound also gave a solubility in series [2] of more than 1500 µM.
